Test results as given in ChEMBL document CHEMBL5608208, “Design, synthesis of griseofamine A derivatives and development of potent antibacterial agents against MRSA” (Eur J Med Chem, 2024).
Values after ≈ are worked out from the molar mass of the structure shown. Active and inactive are the calls of the source. The rule behind the calls is not given here.

Assays:
Staphylococcus aureus [1] = assay: Antibacterial activity against methicillin resistant Staphylococcus aureus ATCC 43300 infected in ICR mouse systemic infection model assessed as reduction in bacterial burden in heart at 2.5 mg/kg, ip pretreated with bacteria for 30 mins followed by compound addition and measured for 7 days; assay type: functional, organism-based; details: time 7.0 day
[2] = tested on: Staphylococcus epidermidis; assay: Antibacterial activity against Staphylococcus epidermidis ATCC 12228 incubated for 18 hrs by serial two-fold dilution method; assay type: functional
[3] = MRT(0 to t) in ICR mouse at 1 mg/kg, iv; assay type: ADME, organism-based; details: in vivo
Staphylococcus aureus [4] = assay: Antibacterial activity against methicillin resistant Staphylococcus aureus ATCC 33592 incubated for 18 hrs by serial two-fold dilution method; assay type: functional
Staphylococcus aureus [5] = assay: Drug resistance development in methicillin resistant Staphylococcus aureus […] assessed as increase in MIC value measured after 7 passages by broth microdilution method; assay type: functional, organism-based
Staphylococcus aureus [6] = assay: Antibacterial activity against methicillin resistant Staphylococcus aureus ATCC 43300 infected in ICR mouse systemic infection model assessed as reduction in bacterial burden in spleen at 2.5 mg/kg, ip pretreated with bacteria for 30 mins followed by compound addition and measured for 7 days; assay type: functional, organism-based; details: time 7.0 day
Staphylococcus aureus [7] = assay: Antibacterial activity against methicillin resistant Staphylococcus aureus ATCC 43300 infected in ICR mouse systemic infection model at 5 mg/kg, ip pretreated with bacteria for 30 mins followed by compound addition and measured for 7 days; assay type: functional; details: time 7 day
[8] = Acute toxicity in ICR mouse assessed as change in food intake at 2 g/kg, po measured after 7 days; assay type: organism-based; details: in vivo, 2000 mg/kg, 168 h, time 7 day
[9] = MRT(0 to infinity) in ICR mouse at 1 mg/kg, iv; assay type: ADME, organism-based; details: in vivo
Staphylococcus aureus [10] = assay: Drug resistance development in Staphylococcus aureus ATCC 29213 assessed as increase in MIC value measured after 7 passages by broth microdilution method; assay type: functional, organism-based
[11] = Acute toxicity in ICR mouse assessed as aberrant behavior at 2 g/kg, po measured after 7 days; assay type: organism-based; details: in vivo, 2000 mg/kg, 168 h, time 7 day
Staphylococcus aureus [12] = assay: Bactericidal activity against methicillin resistant Staphylococcus aureus ATCC 33592 incubated for 18 to 24 hrs; assay type: functional; details: time 18-24 hrs
Staphylococcus aureus [13] = assay: Potency index, ratio of vancomycin MIC to test compound MIC for antibacterial activity against methicillin resistant Staphylococcus aureus ATCC 33592; assay type: functional
[14] = AUC(0 to infinity) in ICR mouse at 1 mg/kg, iv; assay type: ADME, organism-based; details: in vivo
[15] = Acute toxicity in ICR mouse assessed as change in body weight at 2 g/kg, po measured after 7 days; assay type: organism-based; details: in vivo, 2000 mg/kg, 168 h, time 7 day
Staphylococcus aureus [16] = assay: Antibacterial activity against methicillin resistant Staphylococcus aureus ATCC 33592 assessed as surface collapse at MIC incubated for 1 to 6 hrs by SEM analysis; assay type: functional, organism-based; details: time 1-6 hrs
Staphylococcus aureus [17] = assay: Drug resistance development in methicillin resistant Staphylococcus aureus ATCC 43300 assessed as increase in MIC value measured after 8 passages by broth microdilution method; assay type: functional
[18] = Cmax in ICR mouse at 1 mg/kg, iv; assay type: ADME, organism-based; details: in vivo
Staphylococcus aureus [19] = assay: Inhibition of biofilm formation in methicillin resistant Staphylococcus aureus ATCC 33592 assessed as decrease in biofilm survival rate incubated for 48 hrs by crystal violet staining based optical microscopic analysis; assay type: functional, organism-based
[20] = Cmax in ICR mouse at 5 mg/kg, po; assay type: ADME, organism-based; details: in vivo
[21] = Tmax in ICR mouse at 1 mg/kg, iv; assay type: ADME, organism-based; details: in vivo
Enterococcus faecium = assay: Antibacterial activity against Enterococcus faecium ATCC 700221 incubated for 18 hrs by serial two-fold dilution method; assay type: functional
[22] = tested on: Staphylococcus epidermidis; assay: Drug resistance development in Staphylococcus epidermidis ATCC 12228 assessed as increase in MIC value measured after 8 passages by broth microdilution method; assay type: functional
Staphylococcus aureus [23] = assay: Antibacterial activity against methicillin resistant Staphylococcus aureus ATCC 43300 infected in ICR mouse systemic infection model assessed as reduction in bacterial burden in kidney at 2.5 mg/kg, ip pretreated with bacteria for 30 mins followed by compound addition and measured for 7 days; assay type: functional, organism-based; details: time 7.0 day
[24] = MRT(0 to t) in ICR mouse at 5 mg/kg, po; assay type: ADME, organism-based; details: in vivo
Bacillus subtilis = assay: Antibacterial activity against Bacillus subtilis CMCC 63501 incubated for 18 hrs by serial two-fold dilution method; assay type: functional
[25] = tested on: Staphylococcus epidermidis; assay: Bactericidal activity against Staphylococcus epidermidis ATCC 12228 incubated for 18 to 24 hrs; assay type: functional; details: time 18-24 hrs
Staphylococcus aureus [26] = assay: Potency index, ratio of vancomycin MIC to test compound MIC for antibacterial activity against methicillin resistant Staphylococcus aureus ATCC 43300; assay type: functional
Staphylococcus aureus [27] = assay: Drug resistance development in methicillin resistant Staphylococcus aureus […] assessed as increase in MIC value measured after 8 passages by broth microdilution method; assay type: functional
[28] = Acute toxicity in ICR mouse at 2 g/kg, po measured after 7 days; assay type: organism-based; details: in vivo, 2000 mg/kg, time 7 day
Staphylococcus aureus [29] = assay: Bactericidal activity against methicillin resistant Staphylococcus aureus ATCC 33592 at 2.5 times MIC measured after 2 to 24 hrs by time-kill kinetics assay; assay type: functional; details: time 2-24 hrs
[30] = Bioavailability in ICR mouse at 5 mg/kg, po; assay type: ADME, organism-based; details: in vivo
[31] = AUC(0 to t) in ICR mouse at 1 mg/kg, iv; assay type: ADME, organism-based; details: in vivo
Staphylococcus aureus [32] = assay: Potency index, ratio of griseofamine A MIC to test compound MIC for antibacterial activity against methicillin resistant Staphylococcus aureus ATCC 43300; assay type: functional
[33] = MRT(0 to infinity) in ICR mouse at 5 mg/kg, po; assay type: ADME, organism-based; details: in vivo
[34] = tested on: Staphylococcus epidermidis; assay: Drug resistance development in Staphylococcus epidermidis ATCC 12228 assessed as increase in MIC value measured after 7 passages by broth microdilution method; assay type: functional, organism-based
Staphylococcus aureus [35] = assay: Antibacterial activity against Staphylococcus aureus ATCC 29213 incubated for 18 hrs by serial two-fold dilution method; assay type: functional
[36] = AUC(0 to infinity) in ICR mouse at 5 mg/kg, po; assay type: ADME, organism-based; details: in vivo
[37] = Acute toxicity in ICR mouse assessed as change in water intake at 2 g/kg, po measured after 7 days; assay type: organism-based; details: in vivo, 2000 mg/kg, 168 h, time 7 day
[38] = Clearance in ICR mouse at 5 mg/kg, po; assay type: ADME, organism-based; details: in vivo
Staphylococcus aureus [39] = assay: Drug resistance development in Staphylococcus aureus ATCC 29213 assessed as increase in MIC value measured after 8 passages by broth microdilution method; assay type: functional
[40] = Clearance in ICR mouse at 1 mg/kg, iv; assay type: ADME, organism-based; details: in vivo
Staphylococcus aureus [41] = assay: Antibacterial activity against methicillin resistant Staphylococcus aureus ATCC 43300 infected in ICR mouse systemic infection model at 1.25 to 5 mg/kg, ip pretreated with bacteria for 30 mins followed by compound addition and measured for 7 days; assay type: functional; details: dose 1.25-5 mg/kg, time 7 day
[42] = Volume of distribution in ICR mouse at 5 mg/kg, po; assay type: ADME, organism-based; details: in vivo
Cell membrane = assay: Induction of bacterial cell membrane damage in methicillin resistant Staphylococcus aureus ATCC 33592 assessed as increase in fluorescence intensity at MIC incubated for 2 hrs by PI staining based microplate reader assay; assay type: cell membranes
Staphylococcus aureus [43] = assay: Drug resistance development in methicillin resistant Staphylococcus aureus ATCC 43300 assessed as increase in MIC value measured after 7 passages by broth microdilution method; assay type: functional, organism-based

C/C(O)=C1\C(=O)[C@@H]2Cc3c([nH]c4ccccc34)[C@@H](c3ccc(-c4cc(F)cc(F)c4)cc3)N2C1=O
Activity (Staphylococcus aureus [1]): Active | MIC [2]: 0.125 µg/mL (≈ 0.266 µM) | MRT last [3]: 10.4 h | MIC (Staphylococcus aureus [4]): 0.063 µg/mL (≈ 0.134 µM) | Activity (Staphylococcus aureus [5]): inactive | Activity (Staphylococcus aureus [6]): Active | Activity (Staphylococcus aureus [7]): 87.5% | Activity [8]: Non-Toxic | MRT inf [9]: 11.1 h | Activity (Staphylococcus aureus [10]): inactive | Activity [11]: Non-Toxic | MBC (Staphylococcus aureus [12]): 0.5 µg/mL (≈ 1.06 µM) | Ratio (Staphylococcus aureus [13]): 8 | AUC(0-inf) [14]: 4290 ng·h/mL | Activity [15]: Non-Toxic | Activity (Staphylococcus aureus [16]): Active | MIC (Staphylococcus aureus [17]): 2 µg/mL | Cmax [18]: 748 ng/mL | inhibition (Staphylococcus aureus [19]): Dose-Dependent Effect | Cmax [20]: 233 ng/mL | Tmax [21]: 1.8 min | MIC (Enterococcus faecium): 0.45 µg/mL (≈ 0.956 µM) | MIC [22]: 2 µg/mL | Activity (Staphylococcus aureus [23]): Active | MRT last [24]: 10.6 h | MIC (Bacillus subtilis): 0.14 µg/mL (≈ 0.298 µM) | MBC [25]: 0.25 µg/mL (≈ 0.531 µM) | Ratio (Staphylococcus aureus [26]): 8 | MIC (Staphylococcus aureus [27]): 2 µg/mL | LD50 at 168 h [28]: > 2000 mg/kg | Activity (Staphylococcus aureus [29]): 100% | bioavailability [30]: 11.6% | AUC(0-t) [31]: 4240 ng·h/mL | Ratio (Staphylococcus aureus [32]): 128 | MRT inf [33]: 12.7 h | Activity [34]: inactive | MIC (Staphylococcus aureus [35]): 0.031 µg/mL (≈ 0.0659 µM) | AUC(0-inf) [36]: 2570 ng·h/mL | Activity [37]: Non-Toxic | CL/F [38]: 32.5 mL/min/kg | MIC (Staphylococcus aureus [39]): 2 µg/mL | clearance [40]: 3.88 mL/min/kg | Activity (Staphylococcus aureus [41]): >50% | Vd [42]: 21.714 L/kg | Activity (Cell membrane): Active | Activity (Staphylococcus aureus [43]): inactive
